Experimental data: patent US11541028B2, “Peptide pharmaceuticals for treatment of NASH and other disorders” (Mederis Diabetes LLC, priority 2018, dated 2023)
Numbered stars: 1 amine (or outer) side, 2 acyl side, 3 side chain; on linkers, the order of the positions; unused ones are H or OH. Bridge positions count the residues as written; N and C are the ends. Square brackets hold non-standard residues; d marks the D form. Side chains are listed from the residue outwards. Peptide text beside a SMILES is read from it. * marks the point of attachment. X1 = CCCCCCCCCCCCCCCCO[C@@H]1O[C@H](CO[C@H]2O[C@H](C(=O)*)[C@H](O)[C@H](O)[C@H]2O)[C@@H](O)[C@H](O)[C@H]1O; βGlcA(1-O-hexadecyl) = CCCCCCCCCCCCCCCCO[C@@H]1O[C@H](C(=O)*)[C@@H](O)[C@H](O)[C@H]1O; GlcA(1β-O-tetradecyl) = CCCCCCCCCCCCCCO[C@@H]1O[C@H](C(=O)*)[C@@H](O)[C@H](O)[C@H]1O; γGlu = O=C(O)[C@H](CCC(=O)[*:2])N[*:1]; Aib = CC(C)(N)C(=O)O

Tests used:
[1] = target: T1, human glucagon receptor (Homo sapiens, UniProt P47871); test: DiscoveRx LeadHunter cellular assay, cAMP stimulation, glucagon receptor in CHO cells; assay type: cell-based
T1 construct: host or cells: CHO cells
Experimental: (§1) A further series of cellular assays was carried out with standard cellular assays (DiscoveRx, LeadHunter assays) using readout of cAMP stimulation or arrestin activation. Compounds were weighed precisely in an amount of about 1 mg and shipped to DiscoveRx for dilution and assay.

[2] = target: T2, human GLP-1 receptor (Homo sapiens, UniProt P43220); test: DiscoveRx LeadHunter cellular assay, cAMP stimulation, GLP-1 receptor in CHO cells; assay type: cell-based; settings: human GLP-1 receptor in CHO cells (DiscoveRx); read-out: EC50 cAMP GLP-1 R
T2 construct: host or cells: CHO cells
T2 sequence (P43220 24-463): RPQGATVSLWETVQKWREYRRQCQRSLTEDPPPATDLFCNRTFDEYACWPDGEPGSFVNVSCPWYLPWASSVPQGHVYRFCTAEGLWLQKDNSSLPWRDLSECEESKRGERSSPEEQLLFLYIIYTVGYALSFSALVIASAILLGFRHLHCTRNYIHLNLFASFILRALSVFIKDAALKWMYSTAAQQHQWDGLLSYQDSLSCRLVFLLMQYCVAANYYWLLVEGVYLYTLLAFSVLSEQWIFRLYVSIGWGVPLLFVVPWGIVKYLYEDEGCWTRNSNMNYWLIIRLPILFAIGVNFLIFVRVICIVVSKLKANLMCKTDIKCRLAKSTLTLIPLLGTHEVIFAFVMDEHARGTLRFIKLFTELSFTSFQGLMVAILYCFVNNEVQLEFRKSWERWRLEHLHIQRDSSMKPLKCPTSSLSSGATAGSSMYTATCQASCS
Experimental: as §1

T1 sequence (P47871 26-477): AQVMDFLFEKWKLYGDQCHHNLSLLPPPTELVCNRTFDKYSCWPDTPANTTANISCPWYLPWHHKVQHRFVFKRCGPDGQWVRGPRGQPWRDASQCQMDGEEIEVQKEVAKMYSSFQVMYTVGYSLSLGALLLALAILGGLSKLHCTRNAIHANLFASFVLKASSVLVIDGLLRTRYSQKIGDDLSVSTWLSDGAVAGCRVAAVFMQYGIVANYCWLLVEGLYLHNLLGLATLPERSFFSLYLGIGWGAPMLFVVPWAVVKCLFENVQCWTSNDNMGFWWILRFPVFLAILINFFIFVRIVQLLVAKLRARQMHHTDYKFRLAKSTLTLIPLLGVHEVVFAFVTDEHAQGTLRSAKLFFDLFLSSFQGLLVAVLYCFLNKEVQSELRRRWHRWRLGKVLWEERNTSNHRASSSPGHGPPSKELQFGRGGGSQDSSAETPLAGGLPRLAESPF

SMILES: CCCCCCCCCCCCCCCCO[C@@H]1O[C@H](C(=O)NCCCC[C@H](NC(=O)[C@H](C)NC(=O)[C@H](C)NC(=O)[C@H](CCC(N)=O)NC(=O)[C@H](CO)NC(=O)[C@H](CC(=O)O)NC(=O)[C@@H]2CCCCNC(=O)CC[C@H](NC(=O)[C@H](CC(=O)O)NC(=O)[C@H](CO)NC(=O)[C@@H](NC(=O)[C@H](Cc3ccccc3)NC(=O)[C@@H](NC(=O)CNC(=O)[C@H](CCC(N)=O)NC(=O)C(C)(C)NC(=O)[C@@H](N)Cc3c[nH]cn3)[C@@H](C)O)[C@@H](C)O)C(=O)N[C@@H](CO)C(=O)N[C@@H](CCCCN)C(=O)N[C@@H](Cc3ccc(O)cc3)C(=O)N2)C(=O)N[C@@H](CCC(=O)O)C(=O)N[C@@H](Cc2ccccc2)C(=O)N[C@H](C(=O)N[C@@H](CCC(=O)O)C(=O)N[C@@H](Cc2c[nH]c3ccccc23)C(=O)N[C@@H](CC(C)C)C(=O)N[C@@H](CC(C)C)C(=O)N[C@@H](CCC(N)=O)C(=O)N[C@H](C(N)=O)[C@@H](C)O)[C@@H](C)CC)[C@@H](O)[C@H](O)[C@H]1O [EU-A1848] (H-H[Aib]QGTFTSDESKYKDSQAAK(βGlcA(1-O-hexadecyl))EFIEWLLQT-NH2; lactam 10-14; N-terminus assumed)
- EC50 [1]: 3.06 nM
- EC50 [2]: 0.06 nM

SMILES: CCCCCCCCCCCCCCCCO[C@@H]1O[C@H](C(=O)NCCCC[C@@H]2NC(=O)[C@@H](NC(=O)[C@H](CC(=O)O)NC(=O)[C@H](CC(C)C)NC(=O)[C@H](Cc3ccc(O)cc3)NC(=O)[C@H](CCCCN)NC(=O)[C@H](CO)NC(=O)[C@H](Cc3ccc(O)cc3)NC(=O)[C@H](CC(=O)O)NC(=O)[C@H](CO)NC(=O)[C@@H](NC(=O)[C@H](Cc3ccccc3)NC(=O)[C@@H](NC(=O)CNC(=O)[C@H](CCC(N)=O)NC(=O)C(C)(C)NC(=O)[C@@H](N)Cc3c[nH]cn3)[C@@H](C)O)[C@@H](C)O)CCC(=O)NCCCC[C@@H](C(=O)N[C@@H](CCC(=O)O)C(=O)N[C@@H](Cc3ccccc3)C(=O)N[C@H](C(=O)N[C@@H](CCC(=O)O)C(=O)N[C@@H](Cc3c[nH]c4ccccc34)C(=O)N[C@@H](CC(C)C)C(=O)N[C@@H](CC(C)C)C(=O)N[C@@H](CCC(N)=O)C(=O)N[C@H](C(N)=O)[C@@H](C)O)[C@@H](C)CC)NC(=O)[C@H](C)NC(=O)[C@H](C)NC2=O)[C@@H](O)[C@H](O)[C@H]1O [EU-A1842] (H-H[Aib]QGTFTSDYSKYLDEK(βGlcA(1-O-hexadecyl))AAKEFIEWLLQT-NH2; lactam 16-20; N-terminus assumed)
- EC50 [1]: 2.11 nM
- EC50 [2]: 1.21 nM

SMILES: CCCCCCCCCCCCCCO[C@@H]1O[C@H](C(=O)NCCCC[C@H](NC(=O)[C@@H](NC(=O)[C@H](Cc2ccccc2)NC(=O)[C@H](CCC(=O)O)NC(=O)[C@@H]2CCCCNC(=O)CC[C@H](NC(=O)[C@H](CC(=O)O)NC(=O)[C@H](CC(C)C)NC(=O)[C@H](Cc3ccc(O)cc3)NC(=O)[C@H](CCCCN)NC(=O)[C@H](CO)NC(=O)[C@H](Cc3ccc(O)cc3)NC(=O)[C@H](CC(=O)O)NC(=O)[C@H](CO)NC(=O)[C@@H](NC(=O)[C@H](Cc3ccccc3)NC(=O)[C@@H](NC(=O)CNC(=O)[C@H](CCC(N)=O)NC(=O)C(C)(C)NC(=O)[C@@H](N)Cc3c[nH]cn3)[C@@H](C)O)[C@@H](C)O)C(=O)N[C@@H](CCC(N)=O)C(=O)N[C@@H](C)C(=O)N[C@@H](C)C(=O)N2)[C@@H](C)CC)C(=O)N[C@@H](Cc2c[nH]c3ccccc23)C(=O)N[C@@H](CC(C)C)C(=O)N[C@@H](CC(C)C)C(=O)N[C@@H](CCC(N)=O)C(=O)N[C@H](C(=O)NCCOCCOCCOCCOCCC(=O)O)[C@@H](C)O)[C@@H](O)[C@H](O)[C@H]1O [EU-A1634]
- EC50 [1]: 0.493 nM
- EC50 [2]: 0.052 nM

SMILES: CCCCCCCCCCCCCCCCO[C@@H]1O[C@H](CO[C@H]2O[C@H](C(=O)NCCCC[C@H](NC(=O)[C@@H](NC(=O)[C@H](Cc3ccccc3)NC(=O)[C@H](CCC(=O)O)NC(=O)[C@@H]3CCCCNC(=O)CC[C@H](NC(=O)[C@H](CC(=O)O)NC(=O)[C@H](CC(C)C)NC(=O)[C@H](Cc4ccc(O)cc4)NC(=O)[C@H](CCCCN)NC(=O)[C@H](CO)NC(=O)[C@H](Cc4ccc(O)cc4)NC(=O)[C@H](CC(=O)O)NC(=O)[C@H](CO)NC(=O)[C@@H](NC(=O)[C@H](Cc4ccccc4)NC(=O)[C@@H](NC(=O)CNC(=O)[C@H](CCC(N)=O)NC(=O)C(C)(C)NC(=O)[C@@H](N)Cc4c[nH]cn4)[C@@H](C)O)[C@@H](C)O)C(=O)N[C@@H](CCC(N)=O)C(=O)N[C@@H](C)C(=O)N[C@@H](C)C(=O)N3)[C@@H](C)CC)C(=O)N[C@@H](Cc3c[nH]c4ccccc34)C(=O)N[C@@H](CC(C)C)C(=O)N[C@@H](CC(C)C)C(=O)N[C@@H](CCC(N)=O)C(=O)N[C@H](C(N)=O)[C@@H](C)O)[C@H](O)[C@H](O)[C@H]2O)[C@@H](O)[C@H](O)[C@H]1O [EU-A1025]
- EC50 [1]: 0.24 nM
- EC50 [2]: 0.008 nM

SMILES: CCCCCCCCCCCCCCCCO[C@@H]1O[C@H](CO[C@H]2O[C@H](C(=O)NCCCC[C@H](NC(=O)[C@H](CC(=O)O)NC(=O)[C@H](CO)NC(=O)[C@@H](NC(=O)[C@H](Cc3ccccc3)NC(=O)[C@@H](NC(=O)CNC(=O)[C@H](CCC(N)=O)NC(=O)C(C)(C)NC(=O)[C@@H](N)Cc3c[nH]cn3)[C@@H](C)O)[C@@H](C)O)C(=O)N[C@@H](CO)C(=O)N[C@@H](CCCCN)C(=O)N[C@@H](Cc3ccc(O)cc3)C(=O)N[C@@H](CC(C)C)C(=O)N[C@@H](CC(=O)O)C(=O)N[C@H]3CCC(=O)NCCCC[C@@H](C(=O)N[C@@H](CCC(=O)O)C(=O)N[C@@H](Cc4ccccc4)C(=O)N[C@H](C(=O)N[C@@H](CCC(N)=O)C(=O)N[C@@H](Cc4c[nH]c5ccccc45)C(=O)N[C@@H](CC(C)C)C(=O)N[C@@H](CC(C)C)C(=O)N[C@@H](CCC(N)=O)C(=O)N[C@H](C(N)=O)[C@@H](C)O)[C@@H](C)CC)NC(=O)[C@H](C)NC(=O)[C@H](C)NC(=O)[C@H](CCC(N)=O)NC3=O)[C@H](O)[C@H](O)[C@H]2O)[C@@H](O)[C@H](O)[C@H]1O [EU-A1596] (H-H[Aib]QGTFTSDK(X1)SKYLDEQAAKEFIQWLLQT-NH2; lactam 16-20; N-terminus assumed)
- EC50 [1]: 1.23 nM
- EC50 [2]: 0.493 nM

SMILES: CCCCCCCCCCCCCCO[C@@H]1O[C@H](CO[C@H]2O[C@H](C(=O)N[C@@H](CCC(=O)NCCCC[C@H](NC(=O)[C@@H](NC(=O)[C@H](Cc3ccccc3)NC(=O)[C@H](CCC(=O)O)NC(=O)[C@@H]3CCCCNC(=O)CC[C@H](NC(=O)[C@H](CC(=O)O)NC(=O)[C@H](CC(C)C)NC(=O)[C@H](Cc4ccc(O)cc4)NC(=O)[C@H](CCCCN)NC(=O)[C@H](CO)NC(=O)[C@H](Cc4ccc(O)cc4)NC(=O)[C@H](CC(=O)O)NC(=O)[C@H](CO)NC(=O)[C@@H](NC(=O)[C@H](Cc4ccccc4)NC(=O)[C@@H](NC(=O)CNC(=O)[C@H](CCC(N)=O)NC(=O)C(C)(C)NC(=O)[C@@H](N)Cc4c[nH]cn4)[C@@H](C)O)[C@@H](C)O)C(=O)N[C@@H](CCC(N)=O)C(=O)N[C@@H](C)C(=O)N[C@@H](C)C(=O)N3)[C@@H](C)CC)C(=O)N[C@@H](Cc3c[nH]c4ccccc34)C(=O)N[C@@H](CC(C)C)C(=O)N[C@@H](CC(C)C)C(=O)N[C@@H](CCC(N)=O)C(=O)N[C@H](C(N)=O)[C@@H](C)O)C(=O)O)[C@H](O)[C@H](O)[C@H]2O)[C@@H](O)[C@H](O)[C@H]1O [EU-A1607]
- EC50 [1]: 0.126 nM
- EC50 [2]: 0.022 nM

SMILES: CCCCCCCCCCCCCCO[C@@H]1O[C@H](C(=O)N[C@@H](CCC(=O)NCCCC[C@H](NC(=O)[C@H](C)NC(=O)[C@H](C)NC(=O)[C@H](CCC(N)=O)NC(=O)[C@@H]2CCCCNC(=O)CC[C@H](NC(=O)[C@H](CO)NC(=O)[C@H](Cc3ccc(O)cc3)NC(=O)[C@H](CC(=O)O)NC(=O)[C@H](CO)NC(=O)[C@@H](NC(=O)[C@H](Cc3ccccc3)NC(=O)[C@@H](NC(=O)CNC(=O)[C@H](CCC(N)=O)NC(=O)C(C)(C)NC(=O)[C@@H](N)Cc3c[nH]cn3)[C@@H](C)O)[C@@H](C)O)C(=O)N[C@@H](Cc3ccc(O)cc3)C(=O)N[C@@H](CC(C)C)C(=O)N[C@@H](CC(=O)O)C(=O)N2)C(=O)N[C@@H](CCC(=O)O)C(=O)N[C@@H](Cc2ccccc2)C(=O)N[C@H](C(=O)N[C@@H](CCC(N)=O)C(=O)N[C@@H](Cc2c[nH]c3ccccc23)C(=O)N[C@@H](CC(C)C)C(=O)N[C@@H](CC(C)C)C(=O)N[C@@H](CCC(N)=O)C(=O)N[C@H](C(N)=O)[C@@H](C)O)[C@@H](C)CC)C(=O)O)[C@@H](O)[C@H](O)[C@H]1O [EU-A1787] (H-H[Aib]QGTFTSDYSEYLDKQAAK([γGlu-GlcA(1β-O-tetradecyl)])EFIQWLLQT-NH2; lactam 12-16; N-terminus assumed)
- EC50 [1]: 10 nM
- EC50 [2]: 0.246 nM

SMILES: CCCCCCCCCCO[C@@H]1O[C@H](C(=O)N[C@@H](CCC(=O)NCCCC[C@H](NC(=O)[C@@H](NC(=O)[C@H](Cc2ccccc2)NC(=O)[C@H](CCC(=O)O)NC(=O)[C@@H]2CCCCNC(=O)CC[C@H](NC(=O)[C@H](CC(=O)O)NC(=O)[C@H](CC(C)C)NC(=O)[C@H](Cc3ccc(O)cc3)NC(=O)[C@H](CCCCN)NC(=O)[C@H](CO)NC(=O)[C@H](Cc3ccc(O)cc3)NC(=O)[C@H](CC(=O)O)NC(=O)[C@H](CO)NC(=O)[C@@H](NC(=O)[C@H](Cc3ccccc3)NC(=O)[C@@H](NC(=O)CNC(=O)[C@H](CCC(N)=O)NC(=O)C(C)(C)NC(=O)[C@@H](N)Cc3c[nH]cn3)[C@@H](C)O)[C@@H](C)O)C(=O)N[C@@H](CCC(N)=O)C(=O)N[C@@H](C)C(=O)N[C@@H](C)C(=O)N2)[C@@H](C)CC)C(=O)N[C@@H](Cc2c[nH]c3ccccc23)C(=O)N[C@@H](CC(C)C)C(=O)N[C@@H](CC(C)C)C(=O)N[C@@H](CCC(N)=O)C(=O)N[C@H](C(N)=O)[C@@H](C)O)C(=O)O)[C@@H](O)[C@H](O)[C@H]1O [EU-A1716]
- EC50 [1]: 0.032 nM
- EC50 [2]: 0.013 nM
